Consider 7 molecules from EP0496332A1, “Alpha-aminoquinolinoyl-[3]-penicillines, process for their preparation and their use as antibacterial agents” (ARZNEIMITTELWERK DRESDEN GmbH, priority 1991, dated 1992).

Holding throughout (test): In-vitro test, inhibitory concentration by dilution series
Common to all, as to format: cell-based

The test system of one assay is Bacillus subtilis SG 119. The following applies: I = Bacillus subtilis SG 119, step = concentration with no visible growth; for MIC: SG119, read-out: Hemmkonzentration nach Verdünnung (Verdünnungsreihe) (converted). From the text: (§1) Die antibiotische Wirksamkeit erfindungsgemäßer Verbindungen wurde in der üblichen Weise durch Ermittlung der Hemmkonzentrationen nach Verdünnung ermittelt.
(§2) Die erhaltenen Ergebnisse sind in der nachstehenden Tabelle zusammengefaßt.

For another assay, the system named is Citrobacter freudii. The note with it: XIV = Citrobacter freudii, Laborstämme, step = concentration with no visible growth; for MIC: read-out: Hemmkonzentration nach Verdünnung (Verdünnungsreihe) (converted).
Excerpt: as §1, §2

A further assay deals with Enterobacter cloacae. The following applies: XIII = Enterobacter cloacae, Laborstämme, step = concentration with no visible growth; for MIC: read-out: Hemmkonzentration nach Verdünnung (Verdünnungsreihe) (converted).
Excerpt: as §1, §2

Another assay deals with Enterokokken. The following applies: XI = Enterokokken, Laborstämme, step = concentration with no visible growth; for MIC: read-out: Hemmkonzentration nach Verdünnung (Verdünnungsreihe) (converted).
Excerpt: as §1, §2

A further assay has as its system Escherichia coli. The note with it: XII = Escherichia coli, Laborstämme, step = concentration with no visible growth; for MIC: read-out: Hemmkonzentration nach Verdünnung (Verdünnungsreihe) (converted).
Excerpt: as §1, §2

Assay [1] deals with Klebsiella pneumoniae SG 117. The following applies: VII = Klebsiella pneumoniae SG 117, step = concentration with no visible growth; for MIC: SG117, read-out: Hemmkonzentration nach Verdünnung (Verdünnungsreihe) (converted).
Excerpt: as §1, §2

The test system of a further assay is Proteus vulgaris OX 19. The following applies: III = Proteus vulgaris OX 19, step = concentration with no visible growth; for MIC: OX19, read-out: Hemmkonzentration nach Verdünnung (Verdünnungsreihe) (converted).
Excerpt: as §1, §2

In assay [2] the test system is Pseudomonas aeruginosa NCTC 10701. The following applies: IV = Pseudomonas aeruginosa NCTC 10701, step = concentration with no visible growth; for MIC: NCTC10701, read-out: Hemmkonzentration nach Verdünnung (Verdünnungsreihe) (converted).
Excerpt: as §1, §2

Assay [3] relates to Pseudomonas aeruginosa SG 137. The following applies: V = Pseudomonas aeruginosa SG 137, step = concentration with no visible growth; for MIC: SG137, read-out: Hemmkonzentration nach Verdünnung (Verdünnungsreihe) (converted).
Excerpt: as §1, §2

Assay [4] concerns Salmonella gallinarium ATCC 9184. The note with it: ATCC9184; VI = Salmonella gallinarium ATCC 9184; step = concentration with no visible growth; read-out: Hemmkonzentration nach Verdünnung (Verdünnungsreihe) (converted).
Excerpt: as §1, §2

Assay [5] relates to Serratia marcescens SG 621. The following applies: VIII = Serratia marcescens SG 621, step = concentration with no visible growth; for MIC: SG621, read-out: Hemmkonzentration nach Verdünnung (Verdünnungsreihe) (converted).
Excerpt: as §1, §2

Assay [6] deals with Staphylococcus aureus SG 511. The following applies: II = Staphylococcus aureus SG 511, step = concentration with no visible growth; for MIC: SG511, read-out: Hemmkonzentration nach Verdünnung (Verdünnungsreihe) (converted).
Excerpt: as §1, §2

In another assay the test system is Staphylococcus aureus. The note with it: IX = Staphylococcus aureus, Laborstämme, step = concentration with no visible growth; for MIC: read-out: Hemmkonzentration nach Verdünnung (Verdünnungsreihe) (converted).
Excerpt: as §1, §2

The test system of assay [7] is Staphylococcus epidermidis. The following applies: X = Staphylococcus epidermidis, Laborstämme, step = concentration with no visible growth; for MIC: read-out: Hemmkonzentration nach Verdünnung (Verdünnungsreihe) (converted).
Excerpt: as §1, §2

The structures appear in SMILES notation. Values after ≈ are worked out from the molar mass of the structure shown.

On to `CC1(C)S[C@@H]2[C@H](NC(=O)[C@H](N)c3ccccc3)C(=O)N2[C@H]1C(=O)O` [Ampicillin, reference compound], for which the MIC in the assay with Bacillus subtilis SG 119 is 0.2 µM (≈ 0.0699 µg/mL); in the assay with Citrobacter freudii, over 200 µM; in the assay with Enterobacter cloacae, over 200 µM; with Enterokokken, 6.25 µM (≈ 2.18 µg/mL); with Escherichia coli it was 12.5 µM (≈ 4.37 µg/mL); in assay [1], 12.5 µM (≈ 4.37 µg/mL). In addition, the MIC is 12.5 µM (≈ 4.37 µg/mL) in the assay with Proteus vulgaris OX 19; 200 µM (≈ 69.9 µg/mL) in [2]; over 200 µM in [3]; 0.78 µM (≈ 0.273 µg/mL) in assay [4]; 50 µM (≈ 17.5 µg/mL) in assay [5]; 0.78 µM (≈ 0.273 µg/mL) in assay [6]. The MIC with Staphylococcus aureus is 12.5 µM (≈ 4.37 µg/mL); in assay [7] it was 6.25 µM (≈ 2.18 µg/mL).

For `CCOC(=O)Oc1c(C(=O)N[C@@H](C(=O)N[C@@H]2C(=O)N3[C@@H]2SC(C)(C)[C@@H]3C(=O)O)c2ccccc2)cnc2cc(COc3ccc(Br)cc3)c(CC)cc12` [Beisp. 2, 6-[D-(-)-α-([4'-Ethoxycarbonyloxy-6'-ethyl-7'-(4''-brom)-phenoxymethylen-chinolinoyl-3']-carboxamido)-α-phenylacetamido]-penicillansäure-Natriumsalz], the MIC with Bacillus subtilis SG 119 is 3.12 µM (≈ 2.51 µg/mL); in the assay on Citrobacter freudii it was 6.25 µM (≈ 5.04 µg/mL); in the assay with Enterobacter cloacae, 6.25 µM (≈ 5.04 µg/mL); in the assay with Enterokokken it was 12.5 µM (≈ 10.1 µg/mL); with Escherichia coli it was 1.56 µM (≈ 1.26 µg/mL); in assay [1], 0.78 µM (≈ 0.628 µg/mL). Moreover, the MIC is 0.78 µM (≈ 0.628 µg/mL) with Proteus vulgaris OX 19; 6.25 µM (≈ 5.04 µg/mL) in assay [2]; 12.5 µM (≈ 10.1 µg/mL) in assay [3]; 1.56 µM (≈ 1.26 µg/mL) in [4]; 1.56 µM (≈ 1.26 µg/mL) in assay [5]; 1.56 µM (≈ 1.26 µg/mL) in assay [6]. For the same molecule, the results for the MIC (in the assay with Staphylococcus aureus; in [7]) were 25 µM (≈ 20.1 µg/mL) and 12.5 µM (≈ 10.1 µg/mL), respectively.

`CCOC(=O)Oc1c(C(=O)N[C@@H](C(=O)N[C@@H]2C(=O)N3[C@@H]2SC(C)(C)[C@@H]3C(=O)O)c2ccccc2)cnc2cc(COc3ccc(C)cc3)c(CC)cc12` [Beisp. 3, 6-[D-(-)-α-([4'-Ethoxycarbonyloxy-6'-ethyl-7'-(4''-methyl)-phenoxymethylen-chinolinoyl-3']-carboxamido)-α-phenylacetamido]-penicillansäure-Natriumsalz]: the MIC with Bacillus subtilis SG 119 is 1.56 µM (≈ 1.16 µg/mL); in the assay with Citrobacter freudii, 6.25 µM (≈ 4.63 µg/mL); in the assay on Enterobacter cloacae, 6.25 µM (≈ 4.63 µg/mL); in the assay with Enterokokken, 25 µM (≈ 18.5 µg/mL); with Escherichia coli it was 1.56 µM (≈ 1.16 µg/mL); in assay [1], 0.78 µM (≈ 0.578 µg/mL). For the same molecule, the MIC in the assay on Proteus vulgaris OX 19 is 0.39 µM (≈ 0.289 µg/mL); in assay [2] it was 3.12 µM (≈ 2.31 µg/mL); in [3] it was 12.5 µM (≈ 9.26 µg/mL); in assay [4], 3.12 µM (≈ 2.31 µg/mL); in assay [5], 0.78 µM (≈ 0.578 µg/mL); in assay [6], 0.78 µM (≈ 0.578 µg/mL). Further, the results for the MIC (in the assay on Staphylococcus aureus; in assay [7]) were 50 µM (≈ 37 µg/mL) and 12.5 µM (≈ 9.26 µg/mL), respectively.

As to `CCCCOCc1cc2ncc(C(=O)N[C@@H](C(=O)N[C@@H]3C(=O)N4[C@@H]3SC(C)(C)[C@@H]4C(=O)O)c3ccccc3)c(OC(=O)OCC)c2cc1CC` [Beisp. 4, 6-[D-(-)-α-([4'-Ethoxycarbonyloxy-6'-ethyl-7'-n-butoxymethylen-chinolinoyl-3']-carboxamido)-α-phenylacetamido]-penicillansäure-Natriumsalz], the MIC was 0.39 µM (≈ 0.276 µg/mL) in the assay with Bacillus subtilis SG 119; 6.25 µM (≈ 4.42 µg/mL) in the assay with Citrobacter freudii; 3.12 µM (≈ 2.21 µg/mL) in the assay with Enterobacter cloacae; 6.25 µM (≈ 4.42 µg/mL) in the assay on Enterokokken; 1.56 µM (≈ 1.1 µg/mL) with Escherichia coli; 1.56 µM (≈ 1.1 µg/mL) in [1]. The MIC in the assay on Proteus vulgaris OX 19 was 0.78 µM (≈ 0.551 µg/mL); in [2], 1.56 µM (≈ 1.1 µg/mL); in assay [3], 3.12 µM (≈ 2.21 µg/mL); in assay [4], 1.56 µM (≈ 1.1 µg/mL); in assay [5], 1.56 µM (≈ 1.1 µg/mL); in assay [6], 0.78 µM (≈ 0.551 µg/mL). The MIC was 12.5 µM (≈ 8.84 µg/mL) with Staphylococcus aureus and 3.12 µM (≈ 2.21 µg/mL) in [7].

Turning to `CCCOCc1cc2ncc(C(=O)N[C@@H](C(=O)N[C@@H]3C(=O)N4[C@@H]3SC(C)(C)[C@@H]4C(=O)O)c3ccccc3)c(OC(=O)OCC)c2cc1CC` [Beisp. 5, 6-[D-(-)-α-([4'-Ethoxycarbonyloxy-6'-ethyl-7'-n-propoxymethylen-chinolinoyl-3']-carboxamido)-α-phenylacetamido]-penicillansäure-Natriumsalz], the MIC with Bacillus subtilis SG 119 is 0.78 µM (≈ 0.54 µg/mL); in the assay with Citrobacter freudii it was 6.25 µM (≈ 4.33 µg/mL); in the assay on Enterobacter cloacae, 6.25 µM (≈ 4.33 µg/mL); in the assay on Enterokokken, 6.25 µM (≈ 4.33 µg/mL); in the assay with Escherichia coli, 1.56 µM (≈ 1.08 µg/mL); in assay [1], 3.12 µM (≈ 2.16 µg/mL). The MIC with Proteus vulgaris OX 19 is 0.78 µM (≈ 0.54 µg/mL); in [2] it was 0.78 µM (≈ 0.54 µg/mL); in assay [3] it was 3.12 µM (≈ 2.16 µg/mL); in assay [4], 3.12 µM (≈ 2.16 µg/mL); in assay [5], 1.56 µM (≈ 1.08 µg/mL); in assay [6] it was 1.56 µM (≈ 1.08 µg/mL). For the same molecule, the MIC in the assay with Staphylococcus aureus was 6.25 µM (≈ 4.33 µg/mL); in [7], 3.12 µM (≈ 2.16 µg/mL).

For the molecule `CCOCc1cc2ncc(C(=O)N[C@@H](C(=O)N[C@@H]3C(=O)N4[C@@H]3SC(C)(C)[C@@H]4C(=O)O)c3ccccc3)c(OC(=O)OCC)c2cc1CC` [Beisp. 6, 6-[D-(-)-α-([4'-Ethoxycarbonyloxy-6'-ethyl-7'-ethoxy-methylen-chinolinoyl-3']-carboxamido)-α-phenylacetamido]-penicillansäure-Natriumsalz], the MIC is 1.56 µM (≈ 1.06 µg/mL) in the assay on Bacillus subtilis SG 119; 3.12 µM (≈ 2.12 µg/mL) with Citrobacter freudii; 3.12 µM (≈ 2.12 µg/mL) with Enterobacter cloacae; 12.5 µM (≈ 8.48 µg/mL) with Enterokokken; 1.56 µM (≈ 1.06 µg/mL) in the assay on Escherichia coli; 0.78 µM (≈ 0.529 µg/mL) in [1]. For the same molecule, the MIC was 0.39 µM (≈ 0.265 µg/mL) in the assay with Proteus vulgaris OX 19; 0.78 µM (≈ 0.529 µg/mL) in [2]; 6.25 µM (≈ 4.24 µg/mL) in assay [3]; 1.56 µM (≈ 1.06 µg/mL) in [4]; 1.56 µM (≈ 1.06 µg/mL) in assay [5]; 1.56 µM (≈ 1.06 µg/mL) in assay [6]. Besides, the MIC was 12.5 µM (≈ 8.48 µg/mL) in the assay on Staphylococcus aureus and 6.25 µM (≈ 4.24 µg/mL) in [7].

For the molecule `CC(C)COC(=O)Oc1c(C(=O)N[C@@H](C(=O)N[C@@H]2C(=O)N3[C@@H]2SC(C)(C)[C@@H]3C(=O)[O-])c2ccccc2)cnc2c1ccc1ccccc12.[Na+]` [Beisp. 12, 6-[D-(-)-α-([4'-Isobutoxycarbonyloxybenzo[1,2n]chinolinoyl-3']-carboxamido)-α-phenylacetamido]-penicillansäure-Natriumsalz], the “Hemmkonzentration nach Verdünnung (Verdünnungsreihe)” value (from here on “Hemmkonzentration nach Verdünnung”) was 7 (= bei 0,00312 mM) in the assay on Bacillus subtilis SG 119; 6 (= bei 0,00625 mM) in the assay with Citrobacter freudii; 6 (= bei 0,00625 mM) with Enterobacter cloacae; 5 (= bei 0,0125 mM) in the assay on Enterokokken; 7 (= bei 0,00312 mM) with Escherichia coli; 9 (= bei 0,00078 mM) in assay [1]. For the same molecule, the “Hemmkonzentration nach Verdünnung” value in the assay with Proteus vulgaris OX 19 is 10 (= bei 0,00039 mM); in [2] it was 7 (= bei 0,00312 mM); in [3] it was 5 (= bei 0,0125 mM); in assay [5], 7 (= bei 0,00312 mM); in [6], 9 (= bei 0,00078 mM); in the assay on Staphylococcus aureus, 6 (= bei 0,00625 mM). The “Hemmkonzentration nach Verdünnung” value in assay [7] is given as 7 (= bei 0,00312 mM).
